What follows are compounds tested against T1, human OX2R (Homo sapiens, UniProt O43614) (assay: IPOne (IP-1) orexin receptor agonist assay in CHO cells expressing human OX2R). Details: CHO, hOX2R IP-One; percentage of mean max effect of a reference compound at 1 uM with 100% activity.
T1 sequence (O43614 1-444): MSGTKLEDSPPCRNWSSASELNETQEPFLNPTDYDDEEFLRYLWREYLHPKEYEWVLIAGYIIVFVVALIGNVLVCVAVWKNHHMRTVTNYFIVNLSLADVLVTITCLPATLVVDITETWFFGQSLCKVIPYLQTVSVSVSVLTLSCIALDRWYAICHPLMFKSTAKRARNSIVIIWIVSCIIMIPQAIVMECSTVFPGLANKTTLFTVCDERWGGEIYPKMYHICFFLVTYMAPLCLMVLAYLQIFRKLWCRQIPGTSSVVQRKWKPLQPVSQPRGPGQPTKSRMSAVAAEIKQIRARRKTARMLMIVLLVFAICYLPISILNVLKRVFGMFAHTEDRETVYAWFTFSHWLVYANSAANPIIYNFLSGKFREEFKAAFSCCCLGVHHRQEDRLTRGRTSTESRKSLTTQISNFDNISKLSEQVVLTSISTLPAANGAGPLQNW
Procedure: In atypical experiment, the OX1 and OX2 receptor agonist activity is determined in accordance with the following general experimental method. Chinese hamster ovary (CHO) cells expressing human OX1R and/or the human OX2R were grown in Iscove's modified DMEM containing glutaMAX™, 1% G418, 100 U/mL penicillin, 100 μg/mL streptomycin and 10% heat-inactivated qualified fetal bovine serum (FBS). […] During this incubation, IP-one detection reagents were prepared (38:1:1 lysis buffer:D2:AB-cryptate reagents).
For each compound, data were fit to a four parameter logistic fit (ActivityBase software) and the EC50 was reported as the inflection point of the resulting curve.

SMILES | Emax [%]
C[C@@H]1C[C@H](NS(=O)(=O)N(C)C)[C@@H]2COC3CCC(CC3)c3cccc(c3)CCCCOC(=O)N12 [Example 22, N′-((2^1S,2^4S,5^2R,5^3S,5^5R)-5^5-methyl-6-oxo-3,7-dioxa-5(2,1)-pyrrolidina-1(1,3)-benzena-2(1,4)-cyclohexanacycloundecaphane-5^3-yl)-N,N-dimethysulfamide] | 102
CN(C)S(=O)(=O)N[C@H]1CCN2C(=O)CCCCNc3cccc(c3)[C@H]3CC[C@H](CC3)OC[C@@H]12 [Example 23, N′-((2^1S,2^4S,5^2R,5^3S)-6-oxo-3-oxa-11-aza-5(2,1)-pyrrolidina-1(1,3)-benzena-2(1,4)-cyclohexanacycloundecaphane-5^3-yl)-N,N-dimethyl-sulfamide] | 102
CS(=O)(=O)N[C@H]1CCCN2C(=O)CCCCOc3ccccc3[C@H]3CC[C@H](CC3)OC[C@@H]12 [Example 24, N-((2^1S,2^4S,5^2R,5^3S)-6-oxo-3,1′-dioxa-5(2,1)-piperidina-1(1,2)-benzena-2(1,4)-cyclohexanacycloundecaphane-5^3-yl)methanesulfonamide] | 99.2
CN(C)S(=O)(=O)N[C@H]1CCCN2C(=O)OCCCOc3cccc(c3)C3CCC(CC3)OC[C@@H]12 [Example 25, N′-((2^1S,2^4S,5^2R,5^3S)-6-oxo-3,7,11-trioxa-5(2,1)-piperidina-1(1,3)-benzena-2(1,4)-cyclohexanacycloundecaphane-5^3-yl)-N,N-dimethyl-sulfamide] | 101
CN(C)S(=O)(=O)N[C@H]1CCCN2C(=O)OCCCCOc3cccc(c3)C3CCC(CC3)OC[C@@H]12 [Example 26, N′-((2^1S,2^4S,5^2R,5^3S)-6-oxo-3,7,12-trioxa-5(2,1)-piperidina-1(1,3)-benzena-2(1,4)-cyclohexanacyclododecaphane-5^3-yl)-N,N-dimethy-sulfamide] | 94.1
CN(C)S(=O)(=O)N[C@@H]1CCCN2C(=O)OCCCCOc3cccc(c3)C3CCC(CC3)OC[C@H]12 [Example 27, N′-((2^1R,2^4R,5^2S,5^3R)-6-oxo-3,7,12-trioxa-5(2,1)-piperidina-1(1,3)-benzena-2(1,4)-cyclohexanacyclododecaphane-5^3-yl)-N,N-dimethyl-sulfamide] | 4.1
CS(=O)(=O)N[C@H]1CCCN2C(=O)/C=C/CCOc3cccc(c3)C3CCC(CC3)OC[C@@H]12 [Example 28, N-((2^1S,2^4S,5^2R,5^3S,E)-6-oxo-3,11-dioxa-5(2,1)-piperidina-1(1,3)-benzena-2(1,4)-cyclohexanacycloundecaphan-7-en-5^3-yl)methanesulfonamide] | 102
CS(=O)(=O)N[C@H]1CCCN2C(=O)CCCCOc3cccc(c3)C3CCC(CC3)OC[C@@H]12 [Example 29, N-((2^1S,2^4S,5^2R,5^3S)-6-oxo-3,11-dioxa-5(2,1)-piperidina-1(1,3)-benzena-2(1,4)-cyclohexanacycloundecaphane-5^3-yl)methanesulfonamide] | 101
C[C@@H]1C[C@H](NS(C)(=O)=O)C2CO[C@H]3CC=C(CC3)c3cc(F)cc(c3)OCCCOC(=O)N21 (stereo partly drawn) [Example 41] | 102
C[C@@H]1C[C@H](NS(C)(=O)=O)C2COC3CCC(CC3)c3cc(F)cc(c3)OCCCOC(=O)N21 (stereo partly drawn) [Example 42, N-((2^1S,2^4S, 5^2R,5^3S,5^5R)-1^5-fluoro-5^5-methyl-6-oxo-3,7,11-trioxa-5(2,1)-pyrrolidina-1(1,3)-benzena-2(1,4)-cyclohexana-cyclounde-caphane-5^3-yl)methane-sulfonamide] | 102
C[C@@H]1C[C@H](NS(C)(=O)=O)C2CO[C@H]3CC=C(CC3)c3cc(F)cc(c3)OCCCCC(=O)N21 (stereo partly drawn) [Example 43, N-((2^1S,2^4S, 5^2R,5^3S,5^5R)-1^5-fluoro-5^5-methyl-6-oxo-3,11-dioxa-5(2,1)-pyrrolidina-1(1,3)-benzena-2(1,4)-cyclohexana-cyclounde-caphan-2^1-en-5^3-yl)methane-sulfonamide] | 102
C[C@@H]1C[C@H](NS(C)(=O)=O)C2COC3CCC(CC3)c3cc(F)cc(c3)OCCCCC(=O)N21 (stereo partly drawn) [Example 44, N-((2^1S,2^4S, 5^2R,5^3S,5^5R)-1^5-fluoro-5^5-methyl-6-oxo-3,11-dioxa-5(2,1)-pyrrolidina-1(1,3)-benzena-2(1,4)-cyclohexana-cyclounde-caphane-5^3-yl)methane-sulfonamide] | 102
C[C@@H]1C[C@H](NS(C)(=O)=O)C2COC3CCC(CC3)c3ccc(C#N)c(c3)OCCCOC(=O)N21 (stereo partly drawn) [Example 45, N-((2^1S,2^4S, 5^2R,5^3S,5^5R)-1^4-cyano-5^5-methyl-6-oxo-3,7,11-trioxa-5(2,1)-pyrrolidina-1(1,3)-benzena-2(1,4)-cyclohexana-cyclounde-caphane-5^3-yl)methane-sulfonamide] | 103
C[C@@H]1C[C@H](NS(C)(=O)=O)C2CO[C@H]3CC=C(CC3)c3cccc(c3F)OCCCOC(=O)N21 (stereo partly drawn) [Example 46, N-((2^1S,2^4S, 5^2R,5^3S,5^5R)-1^2-fluoro-5^5-methyl-6-oxo-3,7,11-trioxa-5(2,1)-pyrrolidina-1(1,3)-benzena-2(1,4)-cyclohexana-cyclounde-caphan-2^1-en-5^3-yl)methane-sulfonamide] | 102
C[C@@H]1C[C@H](NS(C)(=O)=O)C2COC3CCC(CC3)c3cccc(c3F)OCCCOC(=O)N21 (stereo partly drawn) [Example 47, N-((2^1S,2^4S, 5^2R,5^3S,5^5R)-1^2-fluoro-5^5-methyl-6-oxo-3,7,11-trioxa-5(2,1)-pyrrolidina-1(1,3)-benzena-2(1,4)-cyclohexana-cyclounde-caphane-5^3-yl)methane-sulfonamide] | 102

Second part, the compound after the results:

Emax [%] | SMILES
101 | C[C@@H]1C[C@H](NS(C)(=O)=O)C2COC3CCC(CC3)c3cc(F)cc(c3F)OCCCOC(=O)N21 (stereo partly drawn) [Example 48, N-((2^1S,2^4S, 5^2R,5^3S,5^5R)-1^2,1^5-difluoro-5^5-methyl-6-oxo-3,7,11-trioxa-5(2,1)-pyrrolidina-1(1,3)-benzena-2(1,4)-cyclohexana-cyclounde-caphane-5^3-yl)methane-sulfonamide]
101 | C[C@@H]1C[C@H](NS(C)(=O)=O)C2COC3CCC(CC3)c3cc(cc(C(F)(F)F)c3)OCCCOC(=O)N21 (stereo partly drawn) [Example 49, N-((2^1S,2^4S, 5^2R,5^3S,5^5R)-5^5-methyl-6-oxo-1^5-(trifluoro-methyl)-3,7,11-trioxa-5(2,1)-pyrrolidina-1(1,3)-benzena-2(1,4)-cyclohexana-cyclounde-caphane-5^3-yl)methane-sulfonamide]
101 | C[C@@H]1C[C@H](NS(C)(=O)=O)C2COC3CCC(CC3)c3cc(ccc3OC(F)(F)F)OCCCOC(=O)N21 (stereo partly drawn) [Example 50, N-((2^1S,2^4S, 5^2R,5^3S,5^5R)-5^5-methyl-6-oxo-1^6-(trifluoro-methoxy)-3,7,11-trioxa-5(2,1)-pyrrolidina-1(1,3)-benzena-2(1,4)-cyclohexana-cyclounde-caphane-5^3-yl)methane-sulfonamide]
99.2 | C[C@@H]1C[C@H](NS(C)(=O)=O)[C@@H]2CO[C@H]3CC[C@H](CC3)c3cc(C(F)(F)F)cc(n3)OCCCOC(=O)N12 [Example 51, N-((2^1S,2^4S,5^2R,5^3S,5^5R)-5^5-methyl-6-oxo-14-(trifluoromethyl)-3,7,11-trioxa-1(2,6)-pyridina-5(2,1)-pyrrolidina-2(1,4)-cyclohexanacycloundecaphane-5^3-yl)methanesulfonamide]
98.4 | C[C@@H]1C[C@H](NS(C)(=O)=O)C2COC3CCC(CC3)c3ccc(C(F)(F)F)c(c3)OCCCOC(=O)N21 (stereo partly drawn) [Example 52, N-((2^1S,2^4S,5^2R,5^3S,5^5R)-5^5-methyl-6-oxo-1^4-(trifluoromethyl)-3,7,11-trioxa-5(2,1)-pyrrolidina-1(1,3)-benzena-2(1,4)-cyclohexanacycloundecaphane-5^3-yl)methanesulfonamide]
103 | C[C@@H]1C[C@H](NS(C)(=O)=O)C2COC3CCC(CC3)c3cc(ccc3OC(F)(F)F)OCCOC(=O)N21 (stereo partly drawn) [Example 53, N-((2^1S,2^4S,5^2R,5^3S,5^5R)-5^5-methyl-6-oxo-16-(trifluoromethoxy)-3,7,10-trioxa-5(2,1)-pyrrolidina-1(1,3)-benzena-2(1,4)-cyclohexanacyclodecaphane-5^3-yl)methanesulfonamide]
100 | C[C@@H]1C[C@H](NS(C)(=O)=O)C2COC3CCC(CC3)c3cc(C(F)(F)F)cc(n3)OCCOC(=O)N21 (stereo partly drawn) [Example 54, N-((2^1S,2^4S,5^2R,5^3S,5^5R)-5^5-methyl-6-oxo-1^4-(trifluoromethyl)-3,7,10-trioxa-1(2,6)-pyridina-5(2,1)-pyrrolidina-2(1,4)-cyclohexanacyclodecaphane-5^3-yl)methanesulfonamide]
103 | C[C@@H]1C[C@H](NS(C)(=O)=O)C2COC3CCC(CC3)c3cnc(F)c(c3)OCCCOC(=O)N21 (stereo partly drawn) [Example 55, N-((2^1S,2^4S,5^2R,5^3S,5^5R)-1^6-fluoro-5^5-methyl-6-oxo-3,7,11-trioxa-1(3,5)-pyridina-5(2,1)-pyrrolidina-2(1,4)-cyclohexanacycloundecaphane-5^3-yl)methanesulfonamide]

Same assay, conditions: hOX2R IP-One; percentage of mean max effect of a reference compound at 1 uM with 100% activity

Emax (%) | SMILES
−3.9 | CS(=O)(=O)NC1CCCN2C(=O)CCCOc3cccc(c3)C3CCC(C3)OCC12 (stereo not drawn) [Example 33, N-((2^1S,2^3R,5^2R,5^3S)-6-oxo-3,10-dioxa-5(2,1)-piperidina-1(1,3)-benzena-2(1,3)-cyclopentanacyclodecaphane-5^3-yl)methanesulfonamide]
